Laboratory results taken from PMC8262356, “SLC26A6-selective inhibitor identified in a small-molecule screen blocks fluid absorption in small intestine” (JCI Insight, 2021).

Key:
[1] = molecular target: T1, PAT1 (murine slc26a6) (Mus musculus, UniProt Q8CIW6); test: PAT1-mediated Cl-/SCN- exchange, YFP fluorescence quenching in FRT cells; type: cell-based; settings: read-out: IC50, inhibition of PAT1-mediated Cl-/SCN- exchange
T1 construct: host or cells: Fischer rat thyroid (FRT) cells, lentiviral transduction (pLVX-IRES-mCherry-slc26a6), clonal line FRT-YFP-slc26a6
T1 sequence (Q8CIW6 24-758 limits assumed): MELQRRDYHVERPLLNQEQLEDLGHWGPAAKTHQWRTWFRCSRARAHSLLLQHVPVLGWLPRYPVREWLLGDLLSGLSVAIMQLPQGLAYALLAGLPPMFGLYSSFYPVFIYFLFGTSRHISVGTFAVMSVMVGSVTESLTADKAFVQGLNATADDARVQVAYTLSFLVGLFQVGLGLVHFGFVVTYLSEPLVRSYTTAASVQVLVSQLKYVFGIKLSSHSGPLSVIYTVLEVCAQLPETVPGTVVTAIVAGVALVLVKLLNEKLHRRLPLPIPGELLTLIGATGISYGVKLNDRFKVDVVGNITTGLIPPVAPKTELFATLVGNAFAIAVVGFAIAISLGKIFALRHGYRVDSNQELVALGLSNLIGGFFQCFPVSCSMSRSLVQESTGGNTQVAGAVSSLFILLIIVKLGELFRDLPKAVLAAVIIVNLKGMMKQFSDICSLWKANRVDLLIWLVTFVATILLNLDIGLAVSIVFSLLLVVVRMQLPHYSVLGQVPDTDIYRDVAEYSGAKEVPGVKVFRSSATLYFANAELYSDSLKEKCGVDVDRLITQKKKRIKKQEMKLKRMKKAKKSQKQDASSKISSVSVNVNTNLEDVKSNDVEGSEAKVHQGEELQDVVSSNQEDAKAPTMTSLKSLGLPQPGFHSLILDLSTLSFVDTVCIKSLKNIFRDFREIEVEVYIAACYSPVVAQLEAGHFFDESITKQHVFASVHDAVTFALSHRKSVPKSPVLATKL
Protocol: As PAT1 functions as a general monovalent anion exchanger, PAT1inh-B01 inhibition was studied for different modes of anion exchange. […] To measure Cl^–/HCO3^– exchange, the time course of cytoplasmic pH was measured, using BCECF as a pH indicator, in response to a gluconate gradient to drive exchange of cytoplasmic Cl^– with extracellular HCO3^– producing cytoplasmic alkalinization (Figure 2B) as done before for DRA and pendrin ([7], [10], [11]).
Figure 2 PAT1inh-B01 inhibition of PAT1-mediated anion exchange. (A) YFP fluorescence quenching curves (left), as in Figure 1B, for inhibition of PAT1-mediated exchange of Cl^– for SCN^–, with concentration dependence of PAT1inh-B01 effect (right) (mean ± SEM, n = 3). (B) Inhibition of Cl^–/HCO3^– exchange measured in BCECF-loaded FRT cells by PAT1inh-B01 (mean ± SEM, n = 16–32). (C) Time course of PAT1 inhibition following addition of 1 μM PAT1inh-B01 to cells (mean ± SEM, n = 3). (D) Effects of second messenger signaling on PAT1-mediated Cl^–/I^– exchange. YFP fluorescence quenching curves (left) and summary data (right) following cell exposure to agonists of cAMP (20 μM forskolin + 200 μM IBMX), cGMP (100 μM 8-Br-cGMP) and Ca^+2 (100 μM ATP), or vehicle control (1% DMSO). Mean ± SEM, n = 16 experiments per group, differences not significant by 1-way ANOVA and post hoc Newman-Keuls multiple comparisons test.

[2] = tested on: FRT cells; test: Cytotoxicity, Alamar Blue assay; type: cell-based, rat; settings: 10 μM, 48 h
Protocol: FRT cells were plated in black-walled, clear-bottom tissue culture plates at a density of 20,000 cells/well. After 24 hours in culture, cells were incubated with 10 μM PAT1inh-B01, 0.1% DMSO (vehicle control), or 20 % DMSO (positive control) for 48 hours for assay of cell viability using Alamar Blue (Thermo Fischer Scientific) according to the manufacturer’s instructions.

[3] = tested on: loperamide-induced constipation in mice; test: Loperamide model of constipation; type: in vivo, mouse; settings: 10 mg/kg, oral, stool collected over 3 hours
Protocol: Wild-type CD1 mice were administered loperamide (0.3 mg/kg, intraperitoneally) in PBS containing 5% ethanol (0.1 mg/mL final concentration) to induce constipation ([9], [30]). PAT1inh-B01 and DRAinh-A270, individually or together (10 mg/kg each, in saline containing 5% DMSO and 10% Kolliphor HS 15), or vehicle control were administered by oral gavage 1 hour before loperamide. After loperamide injection mice were placed individually in metabolic cages with free access to food and water. Stool samples were collected for 3 hours, and total stool weight and number of fecal pellets were quantified. To measure stool water content, stool samples were dried at 80°C for 24 hours and water content was calculated as follows: (wet weight – dry weight)/wet weight ([9], [30]).

IC50 [1]: 260 nM
SMILES: Cc1c(Br)c(C(F)(F)F)nn1CC(=O)N1CCc2nc3cc(-c4ccccc4)[nH]n3c(=O)c2C1 [PAT1inh-B01]
cytotoxicity (cell viability, Alamar Blue) [2]: did not cause cytotoxicity | effect on stool parameters (weight, number of pellets, water content) [3]: did not affect
